# US7199113B2, “Pharmaceutically active compounds and methods of use thereof” (priority 1998, dated 2007)
# Assays:
# Assay type in all cases: biochemical
# trypsin = test: Trypsin activity assay; settings: statement on Table 1 (FIG. 2(a))
# Method: For trypsin activity assay, 4 μl of trypsin (100 nM) was first mixed with 61 μl of buffer, 5 μl of DMSO or 5 μl of compound (in DMSO), followed by 15 minute incubation at 37° C. Then 10 μl of substrate S-2222 (4.8 mM) was added to start the reaction. After a 15 minute incubation at 37° C., 20 μl of 50% acetic acid was added to quench the reaction. Absorbance at 405 nm was then measured and the percent inhibition of trypsin activity was calculated from OD405 nm values in the absence and presence of a compound.
# [1] = target: Russell's viper venom (RVV) (Daboia siamensis, UniProt Q7LZ61)
# Chain of Russell's viper venom (RVV) (Q7LZ61 whole entry, looked up): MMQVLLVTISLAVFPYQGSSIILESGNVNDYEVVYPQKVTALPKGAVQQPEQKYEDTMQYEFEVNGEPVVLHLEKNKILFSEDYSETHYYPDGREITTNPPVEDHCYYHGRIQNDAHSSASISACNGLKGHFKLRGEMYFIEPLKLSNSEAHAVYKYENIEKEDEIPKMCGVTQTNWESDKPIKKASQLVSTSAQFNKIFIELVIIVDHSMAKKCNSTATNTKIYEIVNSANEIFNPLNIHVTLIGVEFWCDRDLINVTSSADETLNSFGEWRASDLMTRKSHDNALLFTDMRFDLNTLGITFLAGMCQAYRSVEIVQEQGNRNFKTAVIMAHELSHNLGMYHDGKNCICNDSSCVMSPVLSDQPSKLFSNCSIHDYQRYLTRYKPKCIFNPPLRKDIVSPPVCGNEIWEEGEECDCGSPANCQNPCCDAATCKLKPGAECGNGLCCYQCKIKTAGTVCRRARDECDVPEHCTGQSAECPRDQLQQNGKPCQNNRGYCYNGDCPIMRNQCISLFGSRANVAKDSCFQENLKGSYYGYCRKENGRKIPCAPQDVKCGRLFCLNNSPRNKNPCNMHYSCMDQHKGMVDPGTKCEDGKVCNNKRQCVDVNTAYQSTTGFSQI
# TF/VIIa complex = target: T1, TF/VIIa complex (Homo sapiens, UniProt P13726); test: TF/VIIa-dependent FIX activation assay; settings: for blocking activity in standard assay for TF/VIIa-dependent factor IX activation: statement on FIG. 3; for inhibition of TF/VIIa-dependent FIX activation: statement on Table 4 (FIG. 2(d))
# T1 construct: Truncated recombinant human tissue factor (e.g. composed of 243 amino acids) is expressed in E. coli; host or cells: E. coli (TF)
# T1 sequence (P13726 33-275 limits assumed): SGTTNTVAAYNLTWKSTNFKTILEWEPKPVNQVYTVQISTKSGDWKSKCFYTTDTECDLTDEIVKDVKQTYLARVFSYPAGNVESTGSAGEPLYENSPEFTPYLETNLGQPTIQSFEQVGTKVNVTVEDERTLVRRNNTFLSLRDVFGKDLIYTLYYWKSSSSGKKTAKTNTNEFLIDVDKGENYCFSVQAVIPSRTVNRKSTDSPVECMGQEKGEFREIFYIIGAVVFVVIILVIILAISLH
# T1 sequence (P08709 61-212 partner limits assumed): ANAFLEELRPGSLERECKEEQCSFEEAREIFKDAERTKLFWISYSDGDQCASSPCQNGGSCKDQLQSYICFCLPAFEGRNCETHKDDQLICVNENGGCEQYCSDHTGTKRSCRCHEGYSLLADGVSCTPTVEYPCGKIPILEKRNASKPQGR
# T1 sequence (P08709 213-466 partner limits assumed): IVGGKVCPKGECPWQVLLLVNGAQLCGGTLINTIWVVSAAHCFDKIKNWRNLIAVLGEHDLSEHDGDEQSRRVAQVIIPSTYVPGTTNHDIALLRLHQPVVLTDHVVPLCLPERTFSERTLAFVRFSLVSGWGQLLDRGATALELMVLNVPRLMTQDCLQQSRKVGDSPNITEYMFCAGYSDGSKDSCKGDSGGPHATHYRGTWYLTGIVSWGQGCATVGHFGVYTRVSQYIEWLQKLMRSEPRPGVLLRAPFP
# Method: In a more particular embodiment, the standard assay preferably includes the following steps: • 1) admixing in a suitable assay solution about 0.7 nM TF/VIIa complex with 300 nM factor IX and 1000 nM factor X, and from between about 0.5 μl to about 10 μl of at least one compound to be tested (optionally dissolved in an appropriate vehicle such as water or dimethylsulfoxide (DMSO)) and incubating the solution at 37° C. from between about a few minutes up to about an hour under conditions suitable for forming FIXa and FXa; • 2) contacting the solution with a suitable chelating agent such as EDTA to stop FIX activation; • 3) contacting the solution with a chromogenic substrate specific for the FXa (e.g., Spectrozyme FXa) and incubating same at 37° C.; and • 4) detecting chromophore in the solution as being indicative of the factor IX activation.
# TF/VIIa is not only able to activate FX, but is also able to convert FIX to FIXa. To examine whether the two antagonists 1 and 2 were able to block FIX activation catalyzed by TF/VIIa. FIX activation experiment was conducted. To each well of a 96-well plate, 5 μl of diluted DMSO or compound was added, followed by 45 μl of TF/VIIa (0.67 nM). After mixing and incubating for 15 minutes at 37° C., 10 μl of FIX (300 nM) was added and incubated for 10 minutes at 37° C. 10 μl of EDTA ([…] in 144 mM HEPES, […], 0.576% BSA, pH adjusted to 7.5) was added, followed by addition of 10 μl of FX (1000 nM), 10 μl of polylysine, and 10 μl of Spectrozyme FXa (6 mM). After 3 hour incubation at 37° C., absorbance at 405 nm was measured following addition of 20 μl of 50% acetic acid. The percent inhibition of TF/VIIa-dependent FIX activation was calculated from OD405 nm values in the absence and presence of a compound.
SMILES,inhibition of trypsin activity (trypsin),inhibition of RVV-dependent FX activation [1],blocking activity in standard assay for TF/VIIa-dependent factor IX activation (TF/VIIa complex),inhibition of TF/VIIa-dependent FIX activation (TF/VIIa complex)
"O=P(O)(O)C(CNc1cccc(O)c1)P(=O)(O)O [Compound 1, 1-(bisphosponate)-2-amino(3-hydroxyphenyl)ethyl]",do not inhibit trypsin activity,do not inhibit RVV catalytic activity,good blocking activity,inhibit TF/VIIa-dependent FIX activation
O=P(O)(O)C(CNc1ccc(O)cc1)P(=O)(O)O [Compound 2],do not inhibit trypsin activity,do not inhibit RVV catalytic activity,good blocking activity,inhibit TF/VIIa-dependent FIX activation
